According to paper PMC5656594 (Scientific Reports, 2017):

How the values were obtained:
S217K IN^PFV-DNA complex [1] = target: T1, S217K IN^PFV-DNA complex (Human spumaretrovirus, UniProt P14350, G968K/S969G); assay: Fluorescence enhancement DTG-binding assay, S217K mutant; set-up: species or system prototype foamy virus (PFV); settings: DTG 0.3 μM, 1 mM Mg2+
T1 construct: The pET-IN-PFV plasmid containing the full-length IN gene was used for mutagenesis; His; made in house; host or cells: E. coli BL21-CodonPlus (DE3)-RIPL
Experimental: The fluorescence intensity was monitored as a function of (IN + DNA) and plotted as a function of the binary IN-DNA complex concentration (measured as explained in Fig. 2E legend). […] The graphs in panels A-B show representative data of three independent experiments.
Fluorescence excitation and emission spectra of INSTIs were recorded on a Eclipse (Varian) spectrofluorimeter equipped with two polarizers for anisotropy measurements and a thermostated cell holder, using 80 µl solutions placed in micro cells (Hellma). Drug, IN and DNA concentrations, excitation/emission slit settings as well as the photomultiplier tube (PMT) voltage are specified in figure legends. The intensity value was corrected from the inner filter effect. The steady-state fluorescence anisotropy was calculated using: r = (IVV–G x IVH)/(IVV + 2GxIVH) where IVV and IVH correspond to vertical and horizontal components, respectively, when the sample is excited with vertically polarized light. G represents the correction factor for the difference in the monochromator transmission between // and ⊥ polarized components: G = IHV/IHH. All experiments were performed at 25 °C in buffer A: 20 mM Tris pH 7.2, 50 mM NaCl, 1 mM DTT and 10% (v/v) DMSO.

G187R IN^PFV-DNA complex = target: T2, G187R IN^PFV-DNA complex (Human spumaretrovirus, UniProt P14350, G938R/G968S/S969G); assay: DTG fluorescence anisotropy binding assay, G187R mutant; set-up: species or system prototype foamy virus (PFV); settings: 10 mM Mg2+, DTG 0.6 μM, [IN]=[DNA]=2.4 μM
T2 construct: The pET-IN-PFV plasmid containing the full-length IN gene was used for mutagenesis; His; made in house; host or cells: E. coli BL21-CodonPlus (DE3)-RIPL
Experimental: (§1) The fluorescence intensity was monitored as a function of (IN + DNA) and plotted as a function of the binary IN-DNA complex concentration (measured as explained in Fig. 2E legend). […] (B) The percentage of ternary complexes was calculated using DTG fluorescence enhancement. […] The graphs in panels A-B show representative data of three independent experiments. […] "DTG" is taken from the y-axis title of the same panel.
(§2) To note, Mg^2+ is dispensable for the overall DNA-binding step of IN[32],[43]–[45] and thus, the loss of Mg^2+ chelation is not contradictory with results showing that catalytic mutants bind equally well to DNA and in a similar manner than wt IN (Supplementary Fig. S6). However, G187R cannot be considered as a catalytic mutant since it sustains a significant ST activity although weak (≈10% of the wt activity; Fig. 6).
(§3) Fluorescence excitation and emission spectra of INSTIs were recorded on a Eclipse (Varian) spectrofluorimeter equipped with two polarizers for anisotropy measurements and a thermostated cell holder, using 80 µl solutions placed in micro cells (Hellma). […] The steady-state fluorescence anisotropy was calculated using: r = (IVV–G x IVH)/(IVV + 2GxIVH) where IVV and IVH correspond to vertical and horizontal components, respectively, when the sample is excited with vertically polarized light. […]

IN = settings: INSTIs; cited from earlier work
DNA alone (PFV^CAAT) = assay: DTG fluorescence enhancement in the presence of DNA alone; assay type: binding, prototype foamy virus (PFV); settings: 1 mM Mg2+
Experimental: (§4) The three other conditions (i→iii) led to superimposable spectra. To note, the presence of IN/DNA complexes accounts for light scattering on the blue side of the spectrum.
(§5) All experiments were performed in the presence of 1 mM Mg^2+ (see Supplementary Fig. S4 for [Mg^2+] = 10 mM). λex = 345 nm and PMT = 980 V (Δλex = Δλem = 5 nm). […] Contributions of Raman and Rayleigh scattering were eliminated in the inset spectrum: (viii) = (iv)–(vii) where (vii) represents the proper spectrum of Mg^2+-DTG in the context of the binary IN-DNA complex. […] [Mg^2+] = 1 mM. Inset: fluorescence intensity (375–385 nm) as a function of (IN + DNA). The arrows indicate the intensity level after addition of 500 mM NaCl. Emission spectra are representative of 3 independent experiments for each condition of (IN + DNA). […] (E) Measurement of the binary IN-DNA complex formation. The formation of binary complexes was performed by monitoring the fluorescence anisotropy (r) of DNA (Fl-PFV^CAAT) under similar experimental conditions of the DTG-binding assay (panels C-D). Top, varying stoichiometric concentrations of IN and DNA were mixed and the r parameter was monitored. […]
(§6) Fluorescence excitation and emission spectra of INSTIs were recorded on a Eclipse (Varian) spectrofluorimeter equipped with two polarizers for anisotropy measurements and a thermostated cell holder, using 80 µl solutions placed in micro cells (Hellma). […]

D185N IN^PFV-DNA complex = target: T3, D185N IN^PFV-DNA complex (Human spumaretrovirus, UniProt P14350, D936N); assay: Fluorescence enhancement DTG-binding assay, D185N catalytic mutant; set-up: species or system prototype foamy virus (PFV); settings: 1 mM Mg2+
T3 construct: The pET-IN-PFV plasmid containing the full-length IN gene was used for mutagenesis; His; made in house; host or cells: E. coli BL21-CodonPlus (DE3)-RIPL
Experimental: as §1, §2, §3

S217K IN^PFV-DNA complex [2] = target: T1, S217K IN^PFV-DNA complex; assay: DTG fluorescence anisotropy binding assay, S217K mutant; set-up: species or system prototype foamy virus (PFV); settings: 10 mM Mg2+, DTG 0.6 μM, [IN]=[DNA]=2.4 μM
Experimental: as §1, §2, §3

D128N IN^PFV-DNA complex = target: T4, D128N IN^PFV-DNA complex (Human spumaretrovirus, UniProt P14350, D879N/G968S/S969G); assay: Fluorescence enhancement DTG-binding assay, D128N catalytic mutant; set-up: species or system prototype foamy virus (PFV); settings: 1 mM Mg2+
T4 construct: The pET-IN-PFV plasmid containing the full-length IN gene was used for mutagenesis; His; made in house; host or cells: E. coli BL21-CodonPlus (DE3)-RIPL
Experimental: as §1, §2, §3

IN alone (IN^PFV) = target: T5, IN alone (IN^PFV) (Human spumaretrovirus, UniProt P14350); assay: DTG fluorescence enhancement in the presence of IN alone; assay type: binding, prototype foamy virus (PFV); settings: 1 mM Mg2+
T5 construct: The full-length wt IN^PFV, the three single mutants of the catalytic triad; His; made in house; host or cells: E. coli BL21-CodonPlus (DE3)-RIPL
Experimental: as §4, §5, §6

C[C@@H]1CCO[C@H]2Cn3cc(C(=O)NCc4ccc(F)cc4F)c(=O)c(O)c3C(=O)N12 [DTG, dolutegravir]
DTG binding to S217K (S217K IN^PFV-DNA complex [1]): No binding | DTG binding to G187R by DTG anisotropy (G187R IN^PFV-DNA complex): DTG-binding defects | IC50 values (IN): low-nanomolar range | DTG binding to DNA alone (DNA alone (PFV^CAAT)): no DTG binding | DTG binding to D185N catalytic mutant (D185N IN^PFV-DNA complex): loss of DTG-binding | DTG binding to S217K by DTG anisotropy (S217K IN^PFV-DNA complex [2]): DTG-binding defects | DTG binding to D128N catalytic mutant (D128N IN^PFV-DNA complex): loss of DTG-binding | DTG binding to IN alone (IN alone (IN^PFV)): no DTG binding
